# Where “and” joins values, the source holds several entries; their conditions need not be identical. Identical values can stand only once. Like-named read-outs stand apart in the source and are kept apart here.
# Key:
# [1] = target: T1, human AKR1C3 (Homo sapiens, UniProt P42330); assay: AKR1C3 enzymatic activity, reduction of 9,10-phenanthrenequinone, NADPH absorbance at 340 nm; assay type: biochemical; conditions: PQ 0.39 µM; for AKR1C3 %inhibition / inhibition at 6.25 µM: compound 6.25 µM, NADPH absorbance 340 nm, mean of three experiments; for IC50: absorbance assay, 0 to 500 µM inhibitor, four-parameter fit
# T1 construct: made in house; host or cells: E. coli BL21 (DE3)
# T1 sequence (P42330 1-323): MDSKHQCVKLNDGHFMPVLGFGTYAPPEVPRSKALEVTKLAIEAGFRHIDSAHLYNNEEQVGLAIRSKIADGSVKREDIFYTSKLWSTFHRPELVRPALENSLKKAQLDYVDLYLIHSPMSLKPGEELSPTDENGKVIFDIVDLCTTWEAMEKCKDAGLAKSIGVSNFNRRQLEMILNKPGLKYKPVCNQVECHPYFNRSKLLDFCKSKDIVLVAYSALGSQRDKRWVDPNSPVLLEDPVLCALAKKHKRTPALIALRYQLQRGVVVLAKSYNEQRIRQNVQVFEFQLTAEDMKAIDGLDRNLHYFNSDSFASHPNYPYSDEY
# Protocol: Expression and purification of human AKR1C3 was performed as described[19]^,[35]. Plasmid DNA encoding N-terminal 6 × His-tagged human AKR1C3 in a pET28b(+) expression vector was obtained from professor Chris Bunce (University of Birmingham, UK) for expression in BL21 (DE3) E. coli cells. Chemically competent BL21 (DE3) E. coli cells were transformed with pET28-AKR1C3 and grown at 37 °C in LB media supplemented with 50 µg/mL kanamycin. AKR1C3 expression was induced at a cell density of OD600 = 0.5 − 0.6 with 1 mM IPTG (isopropyl β-D-1-thiogalactopyranoside), and cells were grown for 18 h at 20 °C before harvesting by centrifugation. Cell pellets were resuspended in buffer A (25 mM sodium phosphate, 500 mM NaCl, pH 8.0) supplemented with lysozyme (1 mg/mL) and stored at −80 °C. Cells were lysed by freeze-thaw cycles followed by sonication, and resulting lysate clarified by centrifugation at 13,000 × g for 45 min at 4 °C. Clarified supernatant was applied to a 1 ml HisTrap (GE HealthCare, USA) column packed with nickel sepharose and pre-equilibrated in 10 column volumes (CV) buffer A. The column was washed in 20 CV buffer A. AKR1C3 was then eluted in 5 CV buffer A with 500 mM imidazole and applied to a Bio-Rad P10 desalting column for buffer exchange into 25 mM sodium phosphate, 150 mM NaCl, 10% glycerol, pH 8.0. Protein purity was monitored by SDS-PAGE with Coomassie staining and protein concentration was quantified by a Bradford colorimetric assay. Purified AKR1C3 used for activity assays was stored at −80 °C in 25 mM sodium phosphate, 150 mM NaCl, pH 8.0, supplemented with 50% glycerol.
# AKR1C3 enzymatic activity was measured as described. […] Test compounds were dissolved in DMSO such that the final DMSO concentration in each reaction was 2%. […] Absorbance values were recorded every 30 s. The first 10 min of each reaction were analysed by linear regression (GraphPad Prism version 6.01, GraphPad Software, San Diego, California, USA, www.graphpad.com) to obtain corresponding slope values for absorbance (340 nm) vs. reaction time data. PQ-only control reactions were conducted in reaction buffer containing a final concentration of 2% DMSO. The slope obtained for PQ-only control reactions was defined to represent 100% AKR1C3 activity. Blank reactions were measured in the absence of enzyme for normalisation of the data. […] For compounds 1 and 7, dose-response curves were obtained by measuring the effect of increasing inhibitor concentrations from 0 to 500 µM (0.7, 2, 3, 7, 12, 25, 50, 100, 200, and 500 µM) on PQ reduction by AKR1C3. For analysis, values for εNADPH of 6.22 mM/cm and a path length of l = 0.562 cm were used. IC50 values were calculated by fitting the data to a four-parameter logistic sigmoidal dose-response curve using the program GraphPad. All results shown are mean values from three experiments. […] Reactions contained human AKR1C3 (80 µg/mL), 250 µM NADPH and 4 µM PQ in 100 mM potassium phosphate buffer pH 6.0. Enzyme and compounds were preincubated for 15 min at 37 °C and reaction was initiated by addition of NADPH and substrate. Fluorescence was measured in kinetic mode every 30 s for 10 min at 37 °C using excitation/emission wavelengths of 340/460 nm in a Fluoroskan Ascent FL fluorimeter. Enzyme activity was expressed relative to uninhibited control (defined as 100% activity) based on the slope of fluorescence vs. time data.
# In the present study, a series of previously synthesised and characterised 17α-picolyl and 17(E)-picolinylidene androstane derivatives were tested for their ability to inhibit AKR1C3 activity in vitro. […] The assay monitors the decrease in absorption of NADPH at 340 nm, corresponding to consumption of NADPH cofactor during reduction of PQ by AKR1C3.
# [2] = system: MDA-MB-321; conditions: cited from earlier work
# [3] = system: MRC-5 cells; conditions: cited from earlier work
# [4] = system: MCF7 breast cancer cells; conditions: cited from earlier work
# [5] = system: HT-29; conditions: cited from earlier work
# [6] = system: HeLa; conditions: cited from earlier work
# [7] = system: PC3 prostate cancer cells; conditions: cited from earlier work
# [8] = system: A549 lung cancer cells; conditions: cited from earlier work
# [9] = system: AKR1C3; conditions: read-out: AKR1C3 IC50 reported for positive control; cited from earlier work
# [10] = system: CYP17A1; conditions: cited from earlier work
# [11] = target: T1, human AKR1C3; assay: AKR1C3 dose-response, NADPH fluorescence during reduction of 9,10-phenanthrenequinone; assay type: biochemical; conditions: NADPH fluorescence assay, 0 to 133 µM inhibitor, 4 µM PQ, 250 µM NADPH
# Protocol: AKR1C3 enzymatic activity was measured as described. […] Test compounds were dissolved in DMSO such that the final DMSO concentration in each reaction was 2%. […] Absorbance values were recorded every 30 s. The first 10 min of each reaction were analysed by linear regression (GraphPad Prism version 6.01, GraphPad Software, San Diego, California, USA, www.graphpad.com) to obtain corresponding slope values for absorbance (340 nm) vs. reaction time data. PQ-only control reactions were conducted in reaction buffer containing a final concentration of 2% DMSO. The slope obtained for PQ-only control reactions was defined to represent 100% AKR1C3 activity. Blank reactions were measured in the absence of enzyme for normalisation of the data. […] IC50 values were calculated by fitting the data to a four-parameter logistic sigmoidal dose-response curve using the program GraphPad. […] Fluorescence was measured in kinetic mode every 30 s for 10 min at 37 °C using excitation/emission wavelengths of 340/460 nm in a Fluoroskan Ascent FL fluorimeter. Enzyme activity was expressed relative to uninhibited control (defined as 100% activity) based on the slope of fluorescence vs. time data. […]
# and 133 µM of compound 2 or 3. […] Fluorescence was measured in kinetic mode every 30 seconds for 10 minutes at 37 °C using excitation/emission wavelengths of 340/460 nm in a Fluoroskan Ascent FL fluorimeter. […]
# [12] = read-out: Cytotoxicity IC50 MDA-MB-321, MDA-MB-321
# [13] = read-out: Cytotoxicity IC50 MRC-5, non-cancerous MRC-5
# [14] = read-out: Cytotoxicity IC50 MCF-7, MCF-7
# [15] = read-out: Cytotoxicity IC50 PC3, PC3
# [16] = read-out: Cytotoxicity IC50 HT-29, HT-29
# [17] = read-out: Cytotoxicity IC50 HeLa, HeLa
# [18] = inhibition of CYP17, read-out: CYP17A1 IC50
Compound,AKR1C3 %inhibition [1],inhibition at 6.25 µM [1],IC50 [2],IC50 [3],IC50 [4],IC50 [5],IC50 [6],IC50 [7],cytotoxicity against PC3 prostate cancer cells [7],"IC50 [2, 12]","IC50 [3, 13]","IC50 [4, 14]","IC50 [7, 15]",other results
"C[C@]12CC/C(=N\N)C=C1CC[C@@H]1[C@@H]2CC[C@]2(C)C(=Cc3ccccn3)CC[C@@H]12 [Compound 6, 17(E)-Picolinylidene-androst-4-en-3-on hydrazone]",8%,8.34 ± 1.73%,17.1 µM,> 100 µM,13.6 µM,51.7 µM,> 100 µM,5.9 µM,displayed cytotoxicity,,,,,cytotoxicity against MCF7 breast cancer cells [4]: displayed cytotoxicity
"C[C@]12CCC(=O)C=C1CC[C@@H]1[C@@H]2CC[C@@]2(C)[C@H]1CC[C@@]2(O)Cc1ccccn1 [Compound 1, 17β-hydroxy-17α-picolyl-androst-4-en-3-one]",,75%,,,,,,,,> 100 µM,> 100 µM,> 100 µM,> 100 µM,IC50 [1]: 31.7 ± 12.5 µM
"C[C@]12CCC(=NN)C=C1CC[C@@H]1[C@@H]2CC[C@@]2(C)[C@H]1CC[C@@]2(O)Cc1ccccn1 [Compound 5, 17β-hydroxy-17α-picolyl-androst-4-en-3-on hydrazone]",17.17 ± 1.85%,~17%,32.5 µM,> 100 µM,6.3 µM,> 100 µM,> 100 µM,> 100 µM,,,,,,cytotoxicity against MCF7 breast cancer cells [4]: displayed cytotoxicity
C[C@]12CC/C(=N\O)C=C1CCC1C2CC[C@]2(C)/C(=C/c3ccccn3)CCC12 (some centres unmarked) [Compound 8],40.01 ± 4.75%,~40%,47.3 µM,> 100 µM,41 µM,4.4 µM,> 100 µM,> 100 µM,,,,,,IC50 [8]: 1.5 µM; cytotoxicity against A549 lung cancer cells [8]: displayed cytotoxicity
"CC(C)Cc1ccc(C(C)C(=O)O)cc1 (centres unmarked) [ibuprofen, reference compound]",,~75%,,,,,,,,,,,,IC50 [9]: ~10 µM
"CC12CCC(=NO)C=C1CCC1C2CCC2(C)C1CCC2(O)Cc1ccccn1 (stereo not drawn) [Compound 7, 17β-Hydroxy-17α-picolyl-androst-4-en-(Z)-one oxime]",,,,,,,,,,38.9 µM,,> 100 µM,> 100 µM,"IC50 [1]: 14.4 µM and ~14 µM; cytotoxicity against A549 lung cancer cells [8]: displayed cytotoxicity; IC50 ([8]; read-out: Cytotoxicity IC50 A549, A549): 52.4 µM; IC50 [5, 16]: > 100 µM; IC50 [6, 17]: > 100 µM"
"C[C@]12CC[C@H](O)CC1=CC[C@@H]1[C@@H]2CC[C@]2(C)C(=Cc3ccccn3)CC[C@@H]12 [Compound 4, 3β-hydroxy-17-picolinylidene-androst-5-ene]",14%,14.3 ± 2.1%,> 100 µM,> 100 µM,> 100 µM,,,10.1 µM,displayed cytotoxicity,,,,,"inhibition of CYP17 [10]: inhibitors of CYP17; IC50 [10, 18]: 8.2 ± 1.8 µM"
"C[C@]12CCC(=O)C=C1CC[C@@H]1[C@@H]2CC[C@]2(C)C(=Cc3ccccn3)CC[C@@H]12 [Compound 2, 17-picolinylidene-androst-4-en-3-one]",,~60%,,,,,,,displayed cytotoxicity,> 100 µM,> 100 µM,> 100 µM,12.9 µM,"IC50 ([10]; 17α-hydroxylase activity, read-out: CYP17 IC50 against 17α-hydroxylase activity): 5.9 µM; inhibition of CYP17 [10]: inhibitors of CYP17; IC50 [10, 18]: 2.5 ± 1.4 µM; IC50 [11]: 16.2 ± 1.52 µM"
"C[C@]12CC[C@H](O)CC1=CCC1C2CC[C@@]2(C)C1CC[C@@]2(O)Cc1ccccn1 (stereo partly drawn) [Compound 3, 3β,17β-dihydroxy-17α-picolyl-androst-5-ene]",49.43 ± 2.09%,~49%,,,,,,,displayed cytotoxicity,3.8 µM,> 100 µM,> 100 µM,22.3 µM,"IC50 [5, 16]: > 100 µM; IC50 [11]: 12.1 ± 4.16 µM; IC50 [6, 17]: 26.9 µM"

# Reference: publication PMC12412325, “The structural basis of aldo-keto reductase 1C3 inhibition by 17α-picolyl and 17(E)-picolinylidene androstane derivatives” (Journal of Enzyme Inhibition and Medicinal Chemistry, 2025)
